In ChEMBL document CHEMBL1773001, “Broad-spectrum antiviral activity including human immunodeficiency and hepatitis C viruses mediated by a novel retinoid thiosemicarbazone derivative” (Eur J Med Chem, 2011):
pEC50: −log10 of the molar value. Active and inactive are the calls of the source. The rule behind the calls is not given here.

Key:
Vaccinia virus = test: Antiviral activity against Vaccinia virus Copenhagen infected in human HFF cells assessed as reduction in viral-induced cytopathic effect by neutral red uptake assay; type: functional, organism-based; details: for EC90 / pEC50: Orthopoxvirus vaccinia; for EC50: hff; for pEC50: read-out: EC50
Human betaherpesvirus 5 [1] = test: Antiviral activity against Human cytomegalovirus (strain AD169) infected in 1 hr pretreated human HFF cells assessed as reduction in viral-induced cytopathic effect by neutral red uptake assay; type: functional, organism-based; details: Human betaherpesvirus 5, AD169, HFF
Human alphaherpesvirus 3 [2] = test: Antiviral activity against Varicella-zoster virus Ellen infected in 1 hr pretreated human HFF cells assessed as reduction in viral-induced cytopathic effect by neutral red uptake assay; type: functional, organism-based; details: Human alphaherpesvirus 3, Ellen
[3] = Selectivity index, ratio of CC50 for human HFF cells infected with […] to EC50 for Varicella-zoster virus Ellen; type: toxicity, cell-based; details: read-out: Selectivity Index
[4] = Cytotoxicity against human HFF cells infected with Varicella-zoster virus Ellen assessed as viable cells by neutral red uptake assay; type: cell-based
[5] = Antiviral activity against Cowpox virus (Brighton Red) infected in human HFF cells assessed as reduction in viral-induced cytopathic effect by neutral red uptake assay; type: functional, cell-based
[6] = Selectivity index, ratio of CC50 for human HFF cells infected with Cowpox virus (Brighton Red) to EC50 for Vaccinia virus Copenhagen; type: toxicity, cell-based; details: read-out: Selectivity Index
[7] = Cytotoxicity against human HFF cells infected with Vaccinia virus Copenhagen assessed as viable cells by neutral red uptake assay; type: cell-based
[8] = Selectivity index, ratio of CC50 for human HFF cells infected with Cowpox virus (Brighton Red) to EC50 for Cowpox virus (Brighton Red); type: toxicity, cell-based; details: read-out: Selectivity Index
[9] = Cytotoxicity against human HFF cells infected with Cowpox virus (Brighton Red) assessed as viable cells by neutral red uptake assay; type: cell-based
[10] = Cytotoxicity against human PBMC infected with Human immunodeficiency virus 1 LAV1 by MTS assay; type: cell-based
[11] = Selectivity index, ratio of CC50 for human PBMC infected with Human immunodeficiency virus 1 LAV1 to EC50 for Human immunodeficiency virus 1 LAV1
[12] = system: Human immunodeficiency virus 1; test: Antiviral activity against Human immunodeficiency virus 1 LAV1 assessed as reduction in RT activity by [3H]-dTTP incorporation assay; type: functional, organism-based
[13] = Cytotoxicity against human HFF cells infected with Human cytomegalovirus AD169 assessed as viable cells by neutral red uptake assay; type: cell-based
[14] = Cytotoxicity against human Huh7ET cells infected with Hepatitis C virus assessed as ribosomal RNA level by RT-PCR; type: cell-based, Huh-7
[15] = Selectivity index, ratio of CC50 for human Huh7ET cells infected with Hepatitis C virus to EC50 for Hepatitis C virus by RT-PCR; type: toxicity, cell-based, Huh-7; details: read-out: Selectivity Index
Hepatitis C virus [16] = test: Antiviral activity against Hepatitis C virus infected in human Huh7ET cells assessed as viral RNA level by RT-PCR; type: functional, organism-based, Hepacivirus hominis; details: Huh-7; for Activity: Hepacivirus hominis
[17] = Selectivity index, ratio of CC90 for human Huh7ET cells infected with Hepatitis C virus to EC90 for Hepatitis C virus by luciferase reporter gene assay; type: toxicity, cell-based, Huh-7; details: read-out: Selectivity Index
[18] = Selectivity index, ratio of CC50 for human Huh7ET cells infected with Hepatitis C virus to EC50 for Hepatitis C virus by luciferase reporter gene assay; type: toxicity, cell-based, Huh-7; details: read-out: Selectivity Index
Hepatitis C virus [19] = test: Antiviral activity against Hepatitis C virus infected in human Huh7ET cells assessed as inhibition of viral replication by luciferase reporter gene assay; type: functional, organism-based, Hepacivirus hominis; details: Huh-7
Hepatitis C virus [20] = test: Antiviral activity against Hepatitis C virus infected in human Huh7ET cells assessed as inhibition of viral replication at 20 uM by luciferase reporter gene assay; type: functional, Hepacivirus hominis; details: Huh-7
[21] = Selectivity index, ratio of CC50 for human HFF cells infected with […] to EC50 for Human cytomegalovirus AD169; type: toxicity, cell-based; details: read-out: Selectivity Index
[22] = Selectivity index, ratio of CC90 for human Huh7ET cells infected with Hepatitis C virus to EC90 for Hepatitis C virus by RT-PCR; type: toxicity, cell-based, Huh-7; details: read-out: Selectivity Index
Human betaherpesvirus 5 [23] = test: Antiviral activity against Human cytomegalovirus (strain AD169) infected in human HFF cells assessed inhibition of viral replication after 1 hr by plaque reduction assay; type: functional, organism-based; details: Human betaherpesvirus 5, AD169, HFF
[24] = Cytotoxicity against human HFF cells infected with Varicella-zoster virus Ellen assessed as viable cells after 1 hr by plaque reduction assay; type: cell-based
[25] = Cytotoxicity against human HFF cells infected with Human cytomegalovirus AD169 assessed as viable cells after 1 hr by plaque reduction assay; type: cell-based
[26] = Selectivity index, ratio of CC50 for human HFF cells infected with […] to EC50 for Human cytomegalovirus AD169 after 1 hr by plaque reduction assay; type: toxicity, cell-based; details: read-out: Selectivity Index
[27] = Selectivity index, ratio of CC50 for human HFF cells infected with […] to EC50 for Varicella-zoster virus Ellen after 1 hr by plaque reduction assay; type: toxicity, cell-based; details: read-out: Selectivity Index
Human alphaherpesvirus 3 [28] = test: Antiviral activity against Varicella-zoster virus Ellen infected in human HFF cells assessed as inhibition of viral replication after 1 hr by plaque reduction assay; type: functional, organism-based; details: Human alphaherpesvirus 3, Ellen

## Nc1nc2c(ncn2COC(CO)CO)c(=O)[nH]1 [GANCICLOVIR]
Vaccinia virus
  EC90: inactive
  EC50: Not Active
Human betaherpesvirus 5 [1]
  pEC50: 7.40

## Nc1nc2c(ncn2COCCO)c(=O)[nH]1 [ACYCLOVIR]
Human alphaherpesvirus 3 [2]
  pEC50: 5.96
Vaccinia virus
  EC90: inactive
  EC50: Not Active
[3]
  selectivity ratio: > 90.9
[4]
  CC50: > 100 µM

## Nc1ccn(C[C@@H](CO)OCP(=O)(O)O)c(=O)n1 [CIDOFOVIR]
Vaccinia virus; Copenhagen, HFF
  EC90: 20 µM
  pEC50: 5.01
[5]
  pEC50: 5.17
  EC90: 18.4 µM
[6]
  selectivity ratio: > 32.3
[7]
  CC50: > 317 µM
[8]
  selectivity ratio: > 47.3
[9]
  CC50: > 317 µM

## Cc1cn([C@H]2C[C@H](N=[N+]=[N-])[C@@H](CO)O2)c(=O)[nH]c1=O [ZIDOVUDINE]
[10]
  CC50: > 100 µM
[11]
  Selectivity Index: >22727
[12]
  pEC50: 8.36
  EC90: 0.031 µM

## NC(=S)N/N=C/c1ccc(Br)cc1F
[13]
  CC50: > 300 µM
[14]
  CC50: ≥ 12.2 µM
  CC90: > 20 µM
[15]
  selectivity ratio: 48.8
Hepatitis C virus [16]
  pEC50: 6.60
  EC90: > 20 µM
Human alphaherpesvirus 3 [2]
  pEC50: < 3.52
  EC90: > 300 µM
Vaccinia virus; Copenhagen, HFF
  EC90: 239 µM
  pEC50: 3.96
[17]
  selectivity ratio: > 3.4
[5]
  pEC50: 3.94
  EC90: 294 µM
[18]
  selectivity ratio: > 71.4
[6]
  selectivity ratio: > 2.7
Human betaherpesvirus 5 [1]
  pEC50: < 3.52
  EC90: > 300 µM
[4]
  CC50: > 300 µM
[7]
  CC50: > 300 µM
[8]
  selectivity ratio: > 2.6
Hepatitis C virus [19]
  pEC50: 6.55
  EC90: 5.93 µM
[9]
  CC50: > 300 µM

## CN(C)c1ccc(/C=N/N=c2\[nH]c(-c3ccc(F)cc3)cs2)cc1
[13]
  CC50: > 300 µM
Hepatitis C virus [16]
  Activity: inactive
Human alphaherpesvirus 3 [2]
  pEC50: 4.78
  EC90: 26.5 µM
Vaccinia virus; Copenhagen, HFF
  EC90: 84.9 µM
  pEC50: 4.13
[5]
  pEC50: 4.44
  EC90: > 300 µM
[18]
  selectivity ratio: > 3.2
[3]
  selectivity ratio: > 18.1
[6]
  selectivity ratio: > 4.1
Human betaherpesvirus 5 [1]
  pEC50: < 3.52
  EC90: > 300 µM
[4]
  CC50: > 300 µM
[7]
  CC50: > 300 µM
[8]
  selectivity ratio: > 8.3
Hepatitis C virus [19]
  pEC50: 5.20
  EC90: > 20 µM
[9]
  CC50: > 300 µM

## CCCCCCCCCCCCCCS/C(N)=N/N=C/c1ccc(N(C)C)cc1
Hepatitis C virus [16]
  Activity: inactive
Hepatitis C virus [20]
  inhibition at 20 µM: 31.4%

## Nc1nc(O)c2ncn(COC(CO)CO)c2n1 [GANCICLOVIR]
[13]
  CC50: > 100 µM
[21]
  selectivity ratio: > 2500

## NC(=S)N/N=C/c1ccc(OC(F)(F)F)cc1
[13]
  CC50: 290 µM
[14]
  CC50: 1.44 µM
  CC90: ≥ 5.08 µM
[15]
  selectivity ratio: 18
[22]
  selectivity ratio: 8.3
Hepatitis C virus [16]
  pEC50: 7.10
  EC90: 0.61 µM
[21]
  selectivity ratio: < 4.8
Vaccinia virus; Copenhagen, HFF
  EC90: > 300 µM
  pEC50: 3.60
[17]
  selectivity ratio: > 40
[5]
  pEC50: 4.27
  EC90: > 300 µM
[18]
  selectivity ratio: 111
[6]
  selectivity ratio: > 1.2
Human betaherpesvirus 5 [1]
  pEC50: < 4.22
  EC90: > 60 µM
[7]
  CC50: > 300 µM
[8]
  selectivity ratio: > 5.5
Hepatitis C virus [19]
  pEC50: 7.10
  EC90: 0.5 µM
[9]
  CC50: > 300 µM

## CC1=C(/C=C/C(C)=C/C=C/C(C)=C/C=N/[N-]C(=S)[N-]C(=S)[N-]/N=C/C=C(C)/C=C/C=C(C)/C=C/C2=C(C)CCCC2(C)C)C(C)(C)CCC1.O.[Na+].[Na+].[Na+]
[14]
  CC50: 11.2 µM
  CC90: > 20 µM
[15]
  selectivity ratio: 31
[22]
  selectivity ratio: > 10.2
Human betaherpesvirus 5 [23]
  pEC50: 5.62
  EC90: > 4 µM
Hepatitis C virus [16]
  pEC50: 6.44
  EC90: 1.97 µM
[24]
  CC50 at 1 h: 33.3 µM
Vaccinia virus; Copenhagen, HFF
  EC90: > 2.4 µM
  pEC50: < 5.62
[17]
  selectivity ratio: > 5
[5]
  pEC50: < 5.62
  EC90: > 2.4 µM
[25]
  CC50 at 1 h: 13.6 µM
[18]
  selectivity ratio: 15.2
[26]
  selectivity ratio at 1 h: 5.7
[6]
  selectivity ratio: > 4.9
[7]
  CC50: 11.8 µM
[27]
  selectivity ratio at 1 h: 7.1
[10]
  CC50: 28.5 µM
[8]
  selectivity ratio: < 4.9
Human alphaherpesvirus 3 [28]
  pEC50: 5.33
  EC90: 17 µM
Hepatitis C virus [19]
  pEC50: 6.07
  EC90: 4 µM
[9]
  CC50: 11.8 µM
[11]
  Selectivity Index: 5.2
[12]
  pEC50: 5.85
  EC90: 6.5 µM
